The source of these data is patent publication US12565480B2, “Thiophene derivatives as xanthine oxidase inhibitors and application thereof” (Tonghua Dongbao Pharmaceutical Co., Ltd., priority 2019, dated 2026).

The structures appear in SMILES notation.

The target in one data set is CYP2C19 (Homo sapiens (Human), UniProt P33261). Put plainly: Cytochrome P450 isozyme inhibitory activity test, CYP2C19. It is filed as in vitro ADME. The settings on record: human liver microsomes; read-out: Cytochrome P450 isoenzyme IC50, CYP2C19. As to the method: (§1) Cytochrome P450 Isozyme Inhibitory Activity Test
Sequence of CYP2C19 (P33261 whole entry): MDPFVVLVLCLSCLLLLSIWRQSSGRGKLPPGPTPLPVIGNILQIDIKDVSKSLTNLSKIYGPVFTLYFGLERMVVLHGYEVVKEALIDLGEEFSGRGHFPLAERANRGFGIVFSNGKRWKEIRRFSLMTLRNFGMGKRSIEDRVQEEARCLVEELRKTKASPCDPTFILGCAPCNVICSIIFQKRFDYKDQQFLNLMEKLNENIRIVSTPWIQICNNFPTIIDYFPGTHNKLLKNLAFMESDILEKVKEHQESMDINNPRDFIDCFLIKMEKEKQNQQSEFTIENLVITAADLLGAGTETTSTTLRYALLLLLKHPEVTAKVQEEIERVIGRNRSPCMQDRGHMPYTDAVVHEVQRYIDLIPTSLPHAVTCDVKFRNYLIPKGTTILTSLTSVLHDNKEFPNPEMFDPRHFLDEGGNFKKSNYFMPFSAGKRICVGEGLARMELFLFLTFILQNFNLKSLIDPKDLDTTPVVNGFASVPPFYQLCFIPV
(§2) The inhibitory activities of test compounds against different subtypes of human cytochrome P450 isoenzymes were determined.
(§3) Preparing test compounds, standard inhibitor (100×final concentration) and mixed substrate working solutions; Microsomes (purchased from Corning Inc) frozen in −80° C. freezer was taken out and thawed. 20 μL of the test compound and standard inhibitor solution were added to the corresponding wells, and at the same time 20 μL of the corresponding solvent was added to the no inhibitor control wells (NIC) and blank control wells (Blank); then 20 μL of mixed substrate solution was added to the corresponding wells, except for Blank wells (adding 20 μL of Phosphate Buffer (PB) to Blank wells); the human liver microsome solution was prepared (marking the date after use and putting back in the refrigerator immediately), then 158 μL of human liver microsome solution was immediately added to all wells; the above sample plate was pre-incubated in a 37° C. water bath, and then coenzyme factor (NADPH) solution was prepared; 10 minutes later, 20 μL of NADPH solution was added to all wells. […]
In general terms: Microsomes from liver hold many membrane-bound enzymes, among them those of drug oxidation.

The target in another data set is CYP3A4-M (Homo sapiens (Human), UniProt P08684). Put plainly: Cytochrome P450 isozyme inhibitory activity test, CYP3A4-M. It is filed as in vitro ADME. As to conditions: human liver microsomes; read-out: Cytochrome P450 isoenzyme IC50, CYP3A4-M. The protocol:
as §1, §2, §3

The next data set relates to Human hepatocytes. Put plainly: Hepatocytes metabolic stability (HMS), human hepatocytes. Type of data set: in vitro ADME. The settings on record: for Intrinsic hepatic clearance, Human: CLint(liver). The protocol:
(§4) Assay Example 3: Hepatocytes Metabolic Stability (HMS) Study
(§5) To test the metabolic stability of the test sample in human and rat hepatocytes.
(§6) 2.1 Test compound (10 mM), control substance: 7-Ethoxycoumarin (30 mM), 7-Hydroxycoumarin (control substance, 30 mM)
(§7) 2.3 Buffer System: • Thawing medium: Williams' medium E containing 5% fetal bovine serum, 30% Percoll solution and other auxiliary materials • Incubation medium: Williams medium E (without phenol red) containing 2 mM L-glutamine and 25 mM hydroxyethylpiperazine ethane sulfonic acid. • Stop solution: 200 ng/mL of tosylbutyramide and labetalol in acetonitrile as internal standards. • Dilution solution: Ultrapure water. 3. Method of the Assay • 1) The exact amount of positive control compound was dissolved in dimethyl sulfoxide (DMSO) to give a 30 mM solution • 2) 10 mM test compound and 30 mM positive control compound were diluted to 1 mM and 3 mM with DMSO in 96-well plates. • 3) 1 mM test compound and 3 mM positive control compound was diluted into 100 μM and 300 μM quantification solutions with acetonitrile. • 4) The cryopreserved cells were thawed, dissociated and suspended in culture medium, and then diluted to 0.5×10^6 cells/mL with pre-warmed culture medium. • 5) 198 μL of pre-warmed cell suspension was added to a 96-well plate. • 6) 100 μL of stop solution (acetonitrile containing 200 ng/mL tosylbutyramide and 200 ng/mL labetalol as internal standard) was transferred in a set of pre-labeled 96-well plates. • 7) 2 μL of 100 μM test compound or 300 μM positive control quantitation solution was added in duplicate to each well of the 96-well plate. • 8) The TO samples were mixed to achieve uniform suspension over about 1 min, and then 20 μL of each sample was immediately transferred into wells containing 100 μL of ice-cold stop solution followed by mixing. • 9) All plates were incubated at 37° C. in 5% CO2 in a 95% humidified incubator, with constant shaking at approximately 600 rpm for reaction. • 10) At 15, 30, 60 and 90 min, samples were mixed, and then 20 μL of each sample was transferred to wells containing 100 μL of ice-cold stop solution at each time point and mixed. • 11) Medium control (MC) sample plates (labeled as TO-MC and T90-MC) were prepared at TO and T90 by adding the same components to each well except for the cell suspension. […]
(§8) The elimination rate constant k of the test compound and the control compound in hepatocytes was calculated by plotting the logarithm of the residual ratio vs time, and the half-life (T1/2) and in vitro intrinsic clearance rate (CLint) were obtained by using the elimination rate k. […]

A further data set deals with Rat hepatocytes. Put plainly: Hepatocytes metabolic stability (HMS), rat hepatocytes. It is filed as in vitro ADME. The settings on record: for Intrinsic hepatic clearance, Rat: CLint(liver). As to the method: as §4, §5, §6, §7, §8
The target in another data set is CYP2C9 (Homo sapiens (Human), UniProt P11712). Put plainly: Cytochrome P450 isozyme inhibitory activity test, CYP2C9. Type of data set: in vitro ADME. The settings on record: human liver microsomes; read-out: Cytochrome P450 isoenzyme IC50, CYP2C9. The protocol: as §1, §2, §3
Sequence of CYP2C9 (P11712 whole entry): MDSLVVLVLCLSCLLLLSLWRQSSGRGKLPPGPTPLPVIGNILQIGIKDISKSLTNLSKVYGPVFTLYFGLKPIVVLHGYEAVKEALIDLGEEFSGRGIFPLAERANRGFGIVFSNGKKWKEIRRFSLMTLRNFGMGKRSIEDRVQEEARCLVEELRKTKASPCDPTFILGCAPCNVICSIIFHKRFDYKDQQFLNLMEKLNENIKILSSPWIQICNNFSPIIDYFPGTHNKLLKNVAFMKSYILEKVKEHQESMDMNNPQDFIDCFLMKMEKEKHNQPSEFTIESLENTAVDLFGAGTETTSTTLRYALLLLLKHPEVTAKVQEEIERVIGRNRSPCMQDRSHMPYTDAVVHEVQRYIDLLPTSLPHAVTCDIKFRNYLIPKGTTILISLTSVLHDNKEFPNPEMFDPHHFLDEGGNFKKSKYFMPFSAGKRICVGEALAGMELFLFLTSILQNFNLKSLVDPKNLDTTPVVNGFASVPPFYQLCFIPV
The next data set concerns MDR1-MDCK II cells. As to conditions: for Papp (AB) / Papp (BA): 2 μM, pH 7.4, […]; for Papp (AB): A to B; for Papp (BA): B to A. The protocol: Membrane Permeability MDR1 Test
MDR1-MDCK II cells are Madin-Darby canine kidney cells transfected with human MDR1 gene, which can stably express high P-gp. The aim of this study was to test the bidirectional permeability of compounds across the MDR1-MDCK II cell model and to assess whether they are transported by efflux.
Test compounds were diluted in transport buffer (HBSS, 10 mM Hepes with DMSO, pH 7.4) to a concentration of 2 μM (DMSO<1%) and applied on the apical or basolateral side of the cell monolayer. The compound to be tested was tested in duplicate in the direction of from A to B or from B to A, digoxin was tested at 10 μM in the direction of from A to B or from B to A, while nadolol and metoprolol were tested at 2 μM from A to B. Plates were incubated in a CO2 incubator at 37±1° C. in a saturated humidity of 5% CO2 for 2.5 hours without shaking. In addition, the efflux ratio of each compound was determined, and for the test and reference compounds quantitation was conducted. Analysis was carried out by LC/MS/MS according to the peak area ratio of analyte/IS. After the transport assay, the Lucifer Yellow exclusion assay was used to determine integrity of the cell monolayer. The buffer was removed from the apical and basolateral compartments, then 75 μL of 100 μM luciferin yellow was added to the transport buffer, and 250 μL of the transport buffer was added to the apical and basolateral compartments, respectively. The plate was incubated at 37° C., 5% CO2 and saturated humidity for 30 minutes without shaking. After 30 minutes of incubation, 20 μL of luciferin yellow sample was withdrawn from the apical, followed by the addition of 60 μL of transport buffer. An 80 μL luciferin yellow sample was then collected basolaterally.
The apparent permeability coefficient (Papp, cm/s), efflux rate and recovery rate were calculated using the following formulae.
[formula] dCr/dt is the cumulative concentration of the compound at the receiver end over unit time (μM/s); Vr is the volume of the receiver end solution (0.075 mL and 0.250 mL for the apical and basal ends, respectively); Ais the relative surface area (0.0804 cm^2) of the cell monolayer; C0 is the initial concentration (nM) of the test substance at the administration end or the peak area ratio of the reference substance.
[formula] C0 is the initial concentration (nM) of the test substance at the administration end or the peak area ratio of the reference substance; Va is the volume of the administration end (0.075 mL for the apical side and 0.250 mL for the basal side); Cd and Cr are the final concentration (nM) of the test substance at the administration end and the receiver end or the peak area ratio of the reference substance.

For the next data set, the target named is CYP1A2 (Homo sapiens (Human), UniProt P05177). Put plainly: Cytochrome P450 isozyme inhibitory activity test, CYP1A2. As to conditions: human liver microsomes; read-out: Cytochrome P450 isoenzyme IC50, CYP1A2. It is filed as in vitro ADME. As to the method: as §1, §2, §3
Sequence of CYP1A2 (P05177 whole entry): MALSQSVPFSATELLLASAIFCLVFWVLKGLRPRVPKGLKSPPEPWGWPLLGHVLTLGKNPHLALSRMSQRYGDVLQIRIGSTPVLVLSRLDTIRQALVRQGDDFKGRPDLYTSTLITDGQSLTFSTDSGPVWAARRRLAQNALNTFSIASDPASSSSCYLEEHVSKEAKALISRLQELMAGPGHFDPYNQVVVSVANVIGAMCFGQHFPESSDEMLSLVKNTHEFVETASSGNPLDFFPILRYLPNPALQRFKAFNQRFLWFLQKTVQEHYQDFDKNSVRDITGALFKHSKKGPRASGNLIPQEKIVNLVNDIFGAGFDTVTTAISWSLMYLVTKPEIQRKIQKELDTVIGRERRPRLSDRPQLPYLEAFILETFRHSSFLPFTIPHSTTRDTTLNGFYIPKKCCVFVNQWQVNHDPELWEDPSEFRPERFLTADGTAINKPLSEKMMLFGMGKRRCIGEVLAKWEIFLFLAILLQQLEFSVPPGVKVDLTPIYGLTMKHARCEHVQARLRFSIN
Another data set has as its target CYP2D6 (Homo sapiens (Human), UniProt P10635). Put plainly: Cytochrome P450 isozyme inhibitory activity test, CYP2D6. It is filed as in vitro ADME. The settings on record: human liver microsomes; read-out: Cytochrome P450 isoenzyme IC50, CYP2D6. As to the method: as §1, §2, §3
Data set [1] in a line: Pharmacokinetics in SD rats. As to the method: Pharmacokinetics of test compounds in SD rats
Sprague Dawley Rat (male, 180-350 g, 6-10 weeks old, Charles River Laboratories, Beijing)
Six male SD rats were divided into 2 groups. […] Whole blood was collected at 0 (the gavage group only), 0.083 (intravenous only), 0.25, 0.5, 1, 2, 4, 8 and 24 hours after administration. Whole blood was centrifuged at 3200 g at 4° C. for 10 min to obtain plasma.

For data set [2] the following is noted: high dose of 80 mg/day; cited from earlier work.
For data set [3] the following is noted: 2 subjects; cited from earlier work.

Sequence of CYP3A4-M (P08684 whole entry): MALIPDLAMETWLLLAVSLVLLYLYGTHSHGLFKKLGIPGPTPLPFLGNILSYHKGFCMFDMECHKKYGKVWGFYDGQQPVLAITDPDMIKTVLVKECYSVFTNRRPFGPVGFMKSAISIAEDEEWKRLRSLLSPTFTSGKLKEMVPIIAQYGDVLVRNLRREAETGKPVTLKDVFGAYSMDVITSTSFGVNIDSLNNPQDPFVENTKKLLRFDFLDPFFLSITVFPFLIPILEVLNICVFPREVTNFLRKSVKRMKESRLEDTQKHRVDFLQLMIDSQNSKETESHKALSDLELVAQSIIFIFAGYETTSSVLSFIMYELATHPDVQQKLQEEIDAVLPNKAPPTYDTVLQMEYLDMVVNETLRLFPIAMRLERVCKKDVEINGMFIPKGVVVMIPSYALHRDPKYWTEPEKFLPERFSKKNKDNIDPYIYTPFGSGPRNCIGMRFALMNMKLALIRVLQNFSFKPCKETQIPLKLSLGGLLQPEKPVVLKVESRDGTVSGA
Sequence of CYP2D6 (P10635 whole entry): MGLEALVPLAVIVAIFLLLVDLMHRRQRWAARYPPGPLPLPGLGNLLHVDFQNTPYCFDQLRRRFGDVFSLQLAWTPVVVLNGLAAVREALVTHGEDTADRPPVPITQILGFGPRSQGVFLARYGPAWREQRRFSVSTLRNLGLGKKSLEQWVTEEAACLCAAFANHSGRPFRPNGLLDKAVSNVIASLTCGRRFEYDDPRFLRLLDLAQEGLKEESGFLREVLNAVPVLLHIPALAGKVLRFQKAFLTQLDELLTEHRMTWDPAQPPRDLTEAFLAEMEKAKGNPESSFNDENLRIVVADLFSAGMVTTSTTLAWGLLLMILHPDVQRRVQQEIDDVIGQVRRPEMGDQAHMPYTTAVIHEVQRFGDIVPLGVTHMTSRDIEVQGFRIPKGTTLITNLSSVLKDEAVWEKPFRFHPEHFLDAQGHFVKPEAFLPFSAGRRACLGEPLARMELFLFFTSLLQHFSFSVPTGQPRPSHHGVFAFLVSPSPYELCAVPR

As a reminder, the IC50 is the concentration that inhibits the measured activity by half. For `N#Cc1sc(-c2ccc(C(=O)O)c(O)c2)c2c1CCC2` [Compound 3], the concentration for half-maximal inhibition (IC50) is > 50 µM at CYP2C19; > 50 µM at CYP3A4-M; 14.8 µM at CYP2C9; > 50 µM on CYP1A2; > 50 µM on CYP2D6. Also, the “Clearance in human hepatocytes (in words)” value in the data set with Human hepatocytes is listed as “moderate clearance”. Besides, the “Intrinsic hepatic clearance, Human” value in the data set on Human hepatocytes is 48.2 mL/min/kg. In the data set with Rat hepatocytes, the “Clearance in rat hepatocytes (in words)” value was “high clearance”. The “Intrinsic hepatic clearance, Rat” value with Rat hepatocytes came out at 1097.9 mL/min/kg. Further, in the data set on MDR1-MDCK II cells, the “Permeability (in words)” value is given as “high permeability”. The “Papp (AB)” value in the data set with MDR1-MDCK II cells was 38.63 10^−6 cm/s. Moreover, the “Papp (BA)” value with MDR1-MDCK II cells is recorded as 10.99 10^−6 cm/s.
By Vdss is commonly meant the apparent volume that relates the amount in the body to the concentration in plasma or blood. Low values mean confinement near the circulation, high ones extensive tissue distribution. The Cmax is the peak of the concentration-time curve. As a reminder, the Tmax is the time at which the peak concentration occurs. For the molecule `N#Cc1sc(-c2ccc(C(=O)O)c(O)c2)c2c1CCC(F)(F)C2` [Compound 2], the half-maximal inhibitory concentration (IC50) at CYP2C19 was > 50 µM. The concentration for half-maximal inhibition (IC50) on CYP3A4-M is > 50 µM. In addition, in the data set on Human hepatocytes, the “Clearance in human hepatocytes (in words)” value is “moderate clearance” and the “Intrinsic hepatic clearance, Human” value is 31.8 mL/min/kg. In addition, in the data set on Rat hepatocytes, the “Clearance in rat hepatocytes (in words)” value was “high clearance” and the “Intrinsic hepatic clearance, Rat” value is 188.4 mL/min/kg. Moreover, in data set [1], the “Pharmacokinetic properties (in words)” value was “good pharmacokinetic properties”. In data set [1] (2.89 mpk Intravenous injection), this molecule showed an AUC0-inf of 41.8 µM·h, a C0 of 96.6 µM, a Cl of 3.59 mL/min/kg and a T1/2 of 3.74 h. The same molecule registered a distribution volume (Vdss) in data set [1] (2.89 mpk Intravenous injection) of 0.32 L/kg. In data set [1] (8.58 mpk Oral), the AUC0-inf worked out at 86.6 µM·h, the Cmax amounted to 27.5 µM, the T1/2 is 2.47 h and the Tmax came to 0.5 h. Further, the Bioavailability in data set [1] (8.58 mpk Oral vs 2.89 mpk Intravenous injection) is 62.1%. Further, in [1] (oral), the “Oral bioavailability (in words)” value is reported as “high oral bioavailability”. Further, at CYP2C9, the half-maximal inhibitory concentration (IC50) was found to be 18.1 µM. Besides, in the data set on MDR1-MDCK II cells, the “Permeability (in words)” value is “high permeability”, the “Papp (AB)” value is 26.42 10^−6 cm/s and the “Papp (BA)” value is reported as 6.63 10^−6 cm/s. The IC50 on CYP1A2 was > 50 µM. For the same molecule, the half-maximal inhibitory concentration (IC50) at CYP2D6 was > 50 µM.
On to `Cc1nc(-c2ccc(OCC(C)C)c(C#N)c2)sc1C(=O)O` [febusteine], for which the “Patients who do not achieve the expected goal of lowing uric acid” value in data set [2] was 40% to 52.
For `N#Cc1cn(-c2ccc(C(=O)O)c(O)c2)c2ccccc12` [PF-06743649], in data set [3], the “Side effects after administration in clinical phase I trial” value is recorded as “acute PF-06743649-induced renal injury side effects”.
